Columns and labels:
Type in all cases: cell-based
[1] = tested on: Glomerella lagenarium (Colletotrichum lagenarium); test: Glomerella lagenarium (Colletotrichum lagenarium) / liquid culture (anthracnose); conditions: Colletotrichum orbiculare, growth inhibition photometrically 3-4 days after application, compared to untreated control
Description: 3. Glomerella lagenarium (Colletotrichum lagenarium)/Liquid Culture (Anthracnose) Conidia of the fungus from cryogenic storage are directly mixed into nutrient broth (PDB potato dextrose broth). After placing a (DMSO) solution of test compound into a microtiter plate (96-well format), the nutrient broth containing the fungal spores is added. The test plates are incubated at 24° C. and the inhibition of growth is measured photometrically 3-4 days after application.

Gaeumannomyces graminis = Gaeumannomyces graminis / liquid culture (take-all of cereals); conditions: growth inhibition photometrically 4-5 days after application, compared to untreated control
Description: (§1) 6. Gaeumannomyces Graminis/Liquid Culture (Take-all of Cereals) Mycelial fragments of the fungus from cryogenic storage were directly mixed into nutrient broth (PDB potato dextrose broth). After placing a (DMSO) solution of test compound into a microtiter plate (96-well format), the nutrient broth containing the fungal spores is added. The test plates are incubated at 24° C. and the inhibition of growth is determined photometrically 4-5 days after application.

[2] = tested on: Monographella nivalis (Microdochium nivale); test: Monographella nivalis (Microdochium nivale) / liquid culture (foot rot cereals); conditions: growth inhibition photometrically 4-5 days after application, compared to untreated control
Description: as §1, with “8. Monographella nivalis (Microdochium nivale)/Liquid” for “6. Gaeumannomyces Graminis/Liquid”, “(Foot Rot” for “(Take-all of”, “Conidia” for “Mycelial fragments”, “are” for “were”

Pythium ultimum = Pythium ultimum / liquid culture (seedling damping off); conditions: Globisporangium ultimum, growth inhibition photometrically 2-3 days after application, compared to untreated control
Description: 15. Pythium ultimum/Liquid Culture (Seedling Damping Off) Mycelia fragments and oospores of a newly grown liquid culture of the fungus are directly mixed into nutrient broth (PDB potato dextrose broth). After placing a (DMSO) solution of test compound into a microtiter plate (96-well format), the nutrient broth containing the fungal mycelia/spore mixture is added. The test plates are incubated at 24° C. and the inhibition of growth is determined photometrically 2-3 days after application.

Measured: inhibition of growth at 20 ppm

C#CC(CC)OC(=O)c1ccc2c(c1OC)B(O)OC2 (centres unmarked) [Compound 121, 1-ethylprop-2-ynyl 1-hydroxy-7-methoxy-3H-2,1-benzoxaborole-6-carboxylate]
≥ 80%: all assays above

COc1c(C(=O)OCc2cccc(C(F)(F)F)c2)ccc2c1B(O)OC2 [Compound 88, [3-(trifluoromethyl)phenyl]methyl 1-hydroxy-7-methoxy-3H-2,1-benzoxaborole-6-carboxylate]
≥ 80%: Gaeumannomyces graminis | [2] | Pythium ultimum

COc1c(C(=O)OCC(C)(C)c2nnc(S)nc2O)ccc2c1B(O)OC2 [Compound 95, [2-(5-hydroxy-3-sulfanyl-1,2,4-triazin-6-yl)-2-methyl-propyl] 1-hydroxy-7-methoxy-3H-2,1-benzoxaborole-6-carboxylate]
≥ 80%: Gaeumannomyces graminis | [2] | Pythium ultimum

COc1c(C(=O)OCc2nc(C)cs2)ccc2c1B(O)OC2 [Compound 96, (4-methylthiazol-2-yl)methyl 1-hydroxy-7-methoxy-3H-2,1-benzoxaborole-6-carboxylate]
≥ 80%: Gaeumannomyces graminis | [2] | Pythium ultimum

COc1ccccc1COC(=O)c1ccc2c(c1OC)B(O)OC2 [Compound 128, (2-methoxyphenyl)methyl 1-hydroxy-7-methoxy-3H-2,1-benzoxaborole-6-carboxylate]
≥ 80%: Gaeumannomyces graminis | [2] | Pythium ultimum

COc1c(C(=O)OCc2cc(C)cc(C)c2)ccc2c1B(O)OC2 [Compound 116, (3,5-dimethylphenyl)methyl 1-hydroxy-7-methoxy-3H-2,1-benzoxaborole-6-carboxylate]
≥ 80%: Gaeumannomyces graminis | [2] | Pythium ultimum

COc1c(C(=O)OCCOc2ccc(Cl)cc2)ccc2c1B(O)OC2 [Compound 81, 2-(4-chlorophenoxy)ethyl 1-hydroxy-7-methoxy-3H-2,1-benzoxaborole-6-carboxylate]
≥ 80%: Gaeumannomyces graminis | [2] | Pythium ultimum

COC(=O)Nc1ccc(COC(=O)c2ccc3c(c2OC)B(O)OC3)cc1 [Compound 90, [4-(methoxycarbonylamino)phenyl]methyl 1-hydroxy-7-methoxy-3H-2,1-benzoxaborole-6-carboxylate]
≥ 80%: Gaeumannomyces graminis | [2] | Pythium ultimum

COc1ccc(COC(=O)c2ccc3c(c2OC)B(O)OC3)cc1 [Compound 127, (4-methoxyphenyl)methyl 1-hydroxy-7-methoxy-3H-2,1-benzoxaborole-6-carboxylate]
≥ 80%: all assays above

COc1c(C(=O)OCC#Cc2ccc(Cl)cc2)ccc2c1B(O)OC2 [Compound 80, 3-(4-chlorophenyl)prop-2-ynyl 1-hydroxy-7-methoxy-3H-2,1-benzoxaborole-6-carboxylate]
≥ 80%: Gaeumannomyces graminis | [2] | Pythium ultimum

COc1c(C(=O)OCC(OC)c2ccccc2)ccc2c1B(O)OC2 (centres unmarked) [Compound 75, (2-methoxy-2-phenyl-ethyl) 1-hydroxy-7-methoxy-3H-2,1-benzoxaborole-6-carboxylate]
≥ 80%: Gaeumannomyces graminis | [2] | Pythium ultimum
